Source: PubChem BioAssay (NCI)
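Five compound concentrations were applied to cells in 96-well plates for 48 hours; endpoints were derived by simple linear interpolation of the resulting dose-response curve. Definition used: TGI = concentration required for complete inhibition of growth.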

Experiments:
Assay in all cases: NCI-60 cell line screen, 48 h
[1] = test system: U251 CNS
[2] = test system: UACC-257 melanoma
[3] = test system: SF-539 CNS
[4] = test system: OVCAR-8 ovarian
[5] = test system: HCC-2998 colon
[6] = test system: SNB-78 CNS
[7] = test system: SN12C renal
[8] = test system: MALME-3M melanoma
[9] = test system: HT29 colon
[10] = test system: TK-10 renal
[11] = test system: 786-0 renal
[12] = test system: CCRF-CEM leukemia
[13] = test system: DMS 273 small cell lung
[14] = test system: HCT-15 colon
[15] = test system: SK-OV-3 ovarian
[16] = test system: HL-60(TB) leukemia
[17] = test system: LOX IMVI melanoma
[18] = test system: K-562 leukemia
[19] = test system: OVCAR-5 ovarian
[20] = test system: HCT-116 colon
[21] = test system: KM20L2 colon
[22] = test system: HOP-62 NSCLC
[23] = test system: UO-31 renal
[24] = test system: SK-MEL-28 melanoma
[25] = test system: MOLT-4 leukemia
[26] = test system: RXF 393 renal
[27] = test system: CAKI-1 renal
[28] = test system: A549 NSCLC
[29] = test system: LXFL 529 NSCLC
[30] = test system: UACC-62 melanoma
[31] = test system: SK-MEL-2 melanoma
[32] = test system: RPMI-8226 leukemia
[33] = test system: COLO 205 colon
[34] = test system: XF 498 CNS
[35] = test system: NCI-H226 lung
[36] = test system: DLD-1 colon
[37] = test system: ACHN renal
[38] = test system: M19-MEL melanoma
[39] = test system: KM12 colon
[40] = test system: IGROV1 ovarian
[41] = test system: HOP-18 NSCLC
[42] = test system: SNB-75 CNS
[43] = test system: SNB-19 CNS
[44] = test system: DMS 114 small cell lung
[45] = test system: SF-268 CNS
[46] = test system: OVCAR-3 ovarian
[47] = test system: NCI-H460 lung
[48] = test system: HOP-92 NSCLC
[49] = test system: SW-620 colon
[50] = test system: OVCAR-4 ovarian
[51] = test system: NCI-H23 lung
[52] = test system: M14 melanoma
[53] = test system: A498 renal
[54] = test system: EKVX NSCLC
[55] = test system: SF-295 CNS
[56] = test system: SK-MEL-5 melanoma
[57] = test system: NCI-H522 lung

## CCC(C)NC1=C(NC(C)=O)C(=O)c2ccccc2C1=O (stereo not given)
[1]
  TGI: > 75 µM
[2]
  TGI: > 75 µM
[3]
  TGI: > 75 µM
[4]
  TGI: > 75 µM
[5]
  TGI: > 75 µM
[6]
  TGI: > 75 µM
[7]
  TGI: > 75 µM
[8]
  TGI: > 75 µM
[9]
  TGI: > 75 µM
[10]
  TGI: > 75 µM
[11]
  TGI: > 7.5 µM
[12]
  TGI: > 75 µM
[13]
  TGI: > 75 µM
[14]
  TGI: > 75 µM
[15]
  TGI: > 75 µM
[16]
  TGI: 43.1 µM
[17]
  TGI: 40 µM
[18]
  TGI: > 75 µM
[19]
  TGI: > 75 µM
[20]
  TGI: > 75 µM
[21]
  TGI: > 75 µM
[22]
  TGI: > 75 µM
[23]
  TGI: > 75 µM
[24]
  TGI: > 75 µM
[25]
  TGI: > 75 µM
[26]
  TGI: > 75 µM
[27]
  TGI: > 75 µM
[28]
  TGI: > 75 µM
[29]
  TGI: > 75 µM
[30]
  TGI: > 75 µM
[31]
  TGI: > 75 µM
[32]
  TGI: 37.9 µM
[33]
  TGI: > 75 µM
[34]
  TGI: > 75 µM
[35]
  TGI: > 75 µM
[36]
  TGI: > 75 µM
[37]
  TGI: > 75 µM
[38]
  TGI: > 75 µM
[39]
  TGI: > 75 µM
[40]
  TGI: > 75 µM
[41]
  TGI: > 75 µM
[42]
  TGI: > 75 µM
[43]
  TGI: > 75 µM
[44]
  TGI: > 75 µM
[45]
  TGI: > 75 µM
[46]
  TGI: > 75 µM
[47]
  TGI: > 75 µM
[48]
  TGI: > 75 µM
[49]
  TGI: > 75 µM
[50]
  TGI: > 75 µM
[51]
  TGI: > 75 µM
[52]
  TGI: > 75 µM
[53]
  TGI: > 75 µM
[54]
  TGI: > 75 µM
[55]
  TGI: > 75 µM
[56]
  TGI: > 75 µM

## COc1cc(/C=C/c2cccnc2)cc(OC)c1OC
[1]
  TGI: > 100 µM
[2]
  TGI: > 100 µM
[3]
  TGI: > 100 µM
[4]
  TGI: > 100 µM
[6]
  TGI: > 100 µM
[7]
  TGI: > 100 µM
[8]
  TGI: > 100 µM
[9]
  TGI: > 100 µM
[10]
  TGI: > 100 µM
[11]
  TGI: > 100 µM
[12]
  TGI: > 100 µM
[13]
  TGI: > 100 µM
[14]
  TGI: > 100 µM
[16]
  TGI: > 100 µM
[17]
  TGI: > 100 µM
[18]
  TGI: > 100 µM
[19]
  TGI: > 100 µM
[20]
  TGI: > 100 µM
[21]
  TGI: > 100 µM
[22]
  TGI: > 100 µM
[23]
  TGI: > 100 µM
[57]
  TGI: > 100 µM
[24]
  TGI: > 100 µM
[25]
  TGI: > 100 µM
[26]
  TGI: > 100 µM
[27]
  TGI: > 100 µM
[28]
  TGI: > 100 µM
[29]
  TGI: > 100 µM
[30]
  TGI: > 100 µM
[32]
  TGI: > 100 µM
[33]
  TGI: > 100 µM
[34]
  TGI: > 100 µM
[35]
  TGI: > 100 µM
[36]
  TGI: > 100 µM
[37]
  TGI: > 100 µM
[38]
  TGI: > 100 µM
[39]
  TGI: > 100 µM
[40]
  TGI: > 100 µM
[41]
  TGI: > 100 µM
[42]
  TGI: > 100 µM
[43]
  TGI: > 100 µM
[44]
  TGI: > 100 µM
[45]
  TGI: > 100 µM
[46]
  TGI: > 100 µM
[47]
  TGI: > 100 µM
[48]
  TGI: > 100 µM
[49]
  TGI: > 100 µM
[50]
  TGI: > 100 µM
[51]
  TGI: > 100 µM
[52]
  TGI: > 100 µM
[53]
  TGI: > 100 µM
[54]
  TGI: > 100 µM
[55]
  TGI: > 100 µM
[56]
  TGI: > 100 µM
